Measurements from US11141410B2 (MERCK SHARP & DOHME CORP., priority 2015, dated 2021).
Read-outs that look alike come from different tables or passages of the source.

What was measured:
MRSA COL (MB5393) [1] = assay: TarO Inhibitor/β-Lactam Synergy Assay (growth, OD600); format: cell-based; details: Staphylococcus aureus, read-out: MITC95 TarO inhibitor alone, Bacteria: SA_MB5393
MRSA COL (MB5393) [2] = assay: as above; format: cell-based, Staphylococcus aureus; details: for MITC95 TarO inhibitor + 4 μg/mL IPM; Bacteria: SA_MB5393: in combination with 4 μg/mL imipenem (IPM); for MITC95 TarO inhibitor + 8 μg/mL DCX; Bacteria: SA_MB5393: in combination with 8 μg/mL dicloxacillin (DCX)
Method: The TarO inhibitor/β-lactam synergy assay was performed to measure the re-sensitization of methicillin-resistant Staphylococci bacteria (MB5393: MRSA COL) to β-lactam antibiotics by TarO inhibitors. MRSA COL is a hospital-acquired penicillinase-negative clinically isolated strain commonly used in Staphylococcus aureus studies and is fully resistant to the antimicrobial bioactivity of β-lactam antibiotics, including but not limited to imipenem and dicloxacillin. […] MRSA COL is fully refractory to β-lactam antibiotic effect at the current clinical breakpoint concentrations and as such MRSA COL is fully viable at these concentrations.
The β-lactam antibiotic concentration was fixed at the clinical breakpoint (imipenem 4 μg/ml or dicloxacillin 8 μg/ml) and the TarO inhibitors were titrated by 2 fold starting from the highest concentration of 200 μM with final DMSO concentration of 2% in the assay. 5×10^5 colony forming unit of MRSA COL in cation-adjusted Mueller Hinton broth (CAMHB) was then mixed and the assay plate was incubated for 20 hours at 37° C. without shaking. After 20 hours, the optical density at 600 nm (OD600) was read for all wells to determine relative growth of MRSA COL.

[3] = TarO inhibitor alone, >200 μM = 95% growth inhibition not achieved, 20 hours at 37° C.

Structure (SMILES)	IC95 (MRSA COL (MB5393) [1]; [3]) [µM]	MITC95 TarO inhibitor + 4 μg/mL IPM; Bacteria: SA_MB5393 (MRSA COL (MB5393) [2]) [µM]	MITC95 TarO inhibitor + 8 μg/mL DCX; Bacteria: SA_MB5393 (MRSA COL (MB5393) [2]) [µM]	IC95 (MRSA COL (MB5393) [1]; 20 h) [µM]
Cc1nc(C)c(CNC(=O)N2C(=O)O[C@H](c3cc(F)cc(C(F)(F)F)c3)[C@@H]2C)s1 [Example 43, (4S,5R)-N-[(2,4-dimethyl-1,3-thiazol-5-yl)methyl]-5-[3-fluoro-5-(trifluoromethyl)phenyl]-4-methyl-2-oxo-1,3-oxazolidine-3-carboxamide]	> 200	5.21	42	–
C[C@H]1[C@@H](c2cc(F)cc(C(F)(F)F)c2)OC(=O)N1C(=O)NCc1ccccc1S(C)(=O)=O [Example 44, (4S,5R)-5-[3-fluoro-5-(trifluoromethyl)phenyl]-4-methyl-N-[2-(methylsulfonyl)benzyl]-2-oxo-1,3-oxazolidine-3-carboxamide]	> 200	12.50	25	–
C[C@H]1[C@@H](c2cc(C(F)(F)F)cc(C(F)(F)F)c2)OC(=O)N1C(=O)NCc1cccnc1N1CCOCC1 [Example 45, (4S,5R)-5-[3,5-bis(trifluoromethyl)phenyl]-4-methyl-N-[(2-morpholin-4-ylpyridin-3-yl)methyl]-2-oxo-1,3-oxazolidine-3-carboxamide]	> 200	4.69	25	–
C[C@H]1[C@@H](c2cc(F)cc(C(F)(F)F)c2)OC(=O)N1C(=O)N(O)Cc1cccc2ccccc12 [Example 46, (4S,5R)-5-[3-fluoro-5-(trifluoromethyl)phenyl]-N-hydroxy-4-methyl-N-(naphthalen-1-ylmethyl)-2-oxo-1,3-oxazolidine-3-carboxamide]	> 200	6.25	50	–
C[C@H]1[C@@H](c2cc(F)cc(C(F)(F)F)c2)OC(=O)N1C(=O)NCc1cnc2sccn12 [Example 47, (4S,5R)-5-[3-fluoro-5-(trifluoromethyl)phenyl]-N-(imidazo[2,1-b][1,3]thiazol-5-ylmethyl)-4-methyl-2-oxo-1,3-oxazolidine-3-carboxamide]	> 200	62	50	–
C[C@H]1[C@@H](c2cc(F)cc(C(F)(F)F)c2)OC(=O)N1C(=O)NCc1cncc2ccccc12 [Example 48, (4S,5R)-5-[3-fluoro-5-(trifluoromethyl)phenyl]-N-(isoquinolin-4-ylmethyl)-4-methyl-2-oxo-1,3-oxazolidine-3-carboxamide]	> 200	0.13	0.39	–
C[C@H]1[C@@H](c2cc(C(F)(F)F)cc(C(F)(F)F)c2)OC(=O)N1C(=O)NCc1cccc2c1OCCO2 [Example 49, (4S,5R)-5-[3,5-bis(trifluoromethyl)phenyl]-N-(2,3-dihydro-1,4-benzodioxin-5-ylmethyl)-4-methyl-2-oxo-1,3-oxazolidine-3-carboxamide]	> 200	0.02	0.13	–
O=C(NCc1cncc2ccccc12)N1C(=O)O[C@H](c2cc(C(F)(F)F)cc(C(F)(F)F)c2)[C@@H]1CO [Example 50, (4S,5R)-5-(3,5-bis(trifluoromethyl)phenyl)-4-(hydroxymethyl)-N-(isoquinolin-4-ylmethyl)-2-oxooxazolidine-3-carboxamide]	–	0.22	0.64	> 200
COc1cc([C@H]2OC(=O)N(C(=O)NCc3cncc4cccnc34)[C@H]2CO)cc(C(F)(F)F)c1 [Example 51, (4S,5R)-4-(hydroxymethyl)-5-[3-methoxy-5-(trifluoromethyl)phenyl]-N-(1,6-naphthyridin-8-yl-methyl)-2-oxo-1,3-oxazolidine-3-carboxamide]	> 200	1.56	8.33	–
COc1cccc(CNC(=O)N2C(=O)O[C@H](c3cc(C(F)(F)F)cc(C(F)(F)F)c3)[C@@H]2CO)c1OC [Example 52, (4S,5R)-5-[3,5-bis(trifluoromethyl)phenyl]-N-(2,3-dimethoxybenzyl)-4-(hydroxymethyl)-2-oxo-1,3-oxazolidine-3-carboxamide]	> 200	0.03	0.06	–
